Test results as given in US20220331327A1, “THE USE OF PARAXANTHINE TO IMPROVE PERFORMANCE IN VIDEO GAMERS” (priority 2021, published 2022).

Columns and labels:
[1] = test system: healthy men and women playing video games; assay: Video game performance, Super Smash Brothers Ultimate; type: in vivo, human; set-up: Damage Taken, Mean of visit / Damage Taken, Mean ± SD: unit not given here; details: 200 mg daily; for Damage Taken, Mean ± SD / Falls (Deaths), Mean ± SD / Hit Percentage, Mean ± SD / Damage Taken, Mean of visit / Falls (Deaths), Mean of visit / Hit Percentage, Mean of visit: n = 5; for Damage Taken, Mean of visit / Falls (Deaths), Mean of visit / Hit Percentage, Mean of visit: mean of 20-120 min; for Damage Taken, Δ Baseline / Falls (Deaths), Δ Baseline: versus baseline; for Damage Taken, Δ PLA / Falls (Deaths), Δ PLA: versus placebo
Method: The effectiveness of study-products (paraxanthine and placebo) was assessed by measuring in-game performance, cognition during gaming (Stroop Test) and mood status during gaming (Profile of Mood States (POMS)). All study participants played the game Super Smash Brothers Ultimate (Nintendo, Release date: Dec. 7, 2018). Each study participant arrived, completed all necessary testing and began playing the game. Game consoles and controllers were available, but if participants wanted to bring their own controller, they were allowed to do so. The game was be set to the same level and strategy for each player. During each session, study participants played the game for 60 minutes and took a break to complete the Stroop Test and POMS. Participants then played the game for an additional 60 minutes before completing their third tests. […]

healthy subject = assay: Arcade video game GALAGA, game score; type: in vivo, human; details: 300 mg prior to playing GALAGA; one subject
Text: Each of the three game sessions were separated by a one-week washout period. In […], the player mans a lone […] bottom of the screen, which must prevent the […] forces from destroying all of mankind. The objective of each stage is to defeat all of the […] aliens, which will fly into formation from the top and sides of the screen.

[2] = gaming between 100 and 120 minutes of play

## Cn1c(=O)[nH]c2ncn(C)c2c1=O [Paraxanthine, paraxanthine]
[1]; 3 weeks, 20 min
  Damage Taken, Mean ± SD: 870.00 ± 301.09
  Falls (Deaths), Mean ± SD: 5.75 ± 2.63
  Hit Percentage, Mean ± SD: 37.75 ± 9.64
[1]; 3 weeks, 40 min
  Damage Taken, Mean ± SD: 1103.00 ± 253.95
  Falls (Deaths), Mean ± SD: 8 ± 3.67
  Hit Percentage, Mean ± SD: 35.8 ± 8.93
[1]; 3 weeks, 60 min
  Damage Taken, Mean ± SD: 987.25 ± 396.60
  Falls (Deaths), Mean ± SD: 7 ± 3.83
  Hit Percentage, Mean ± SD: 38 ± 5.72
[1]; 3 weeks, 80 min
  Damage Taken, Mean ± SD: 1351.80 ± 341.08
  Falls (Deaths), Mean ± SD: 9 ± 3.32
  Hit Percentage, Mean ± SD: 35.2 ± 8.17
[1]; 3 weeks, 100 min
  Damage Taken, Mean ± SD: 1619.60 ± 383.27
  Falls (Deaths), Mean ± SD: 11.4 ± 4.04
  Hit Percentage, Mean ± SD: 29.4 ± 8.08
[1]; 3 weeks, 120 min
  Damage Taken, Mean ± SD: 2006.60 ± 376.34
  Falls (Deaths), Mean ± SD: 13 ± 3.74
  Hit Percentage, Mean ± SD: 26.4 ± 3.51
[1]; 3 weeks
  Damage Taken, Mean of visit: 1,323.0
  Falls (Deaths), Mean of visit: 9.0
  Hit Percentage, Mean of visit: 33.8
  Damage Taken, Δ Baseline: −9.4%
  Falls (Deaths), Δ Baseline: −15.5%
  Damage Taken, Δ PLA: −9.5%
  Falls (Deaths), Δ PLA: −21.7%
[1]; 6 weeks, 20 min
  Damage Taken, Mean ± SD: 723.62 ± 457.07
  Falls (Deaths), Mean ± SD: 5.2 ± 1.92
  Hit Percentage, Mean ± SD: 28.09 ± 16.43
[1]; 6 weeks, 40 min
  Damage Taken, Mean ± SD: 1077.40 ± 258.42
  Falls (Deaths), Mean ± SD: 8 ± 2.74
  Hit Percentage, Mean ± SD: 42.2 ± 12.46
[1]; 6 weeks, 60 min
  Damage Taken, Mean ± SD: 1182.80 ± 317.56
  Falls (Deaths), Mean ± SD: 7.4 ± 2.7
  Hit Percentage, Mean ± SD: 39.4 ± 6.88
[1]; 6 weeks, 80 min
  Damage Taken, Mean ± SD: 1425.80 ± 173.33
  Falls (Deaths), Mean ± SD: 10 ± 2.55
  Hit Percentage, Mean ± SD: 33 ± 5.43
[1]; 6 weeks, 100 min
  Damage Taken, Mean ± SD: 1697.60 ± 336.71
  Falls (Deaths), Mean ± SD: 13.2 ± 2.59
  Hit Percentage, Mean ± SD: 30.4 ± 4.98
[1]; 6 weeks, 120 min
  Damage Taken, Mean ± SD: 1921.80 ± 379.30
  Falls (Deaths), Mean ± SD: 14.2 ± 3.56
  Hit Percentage, Mean ± SD: 27.2 ± 4.15
[1]; 6 weeks
  Damage Taken, Mean of visit: 1,338.2
  Falls (Deaths), Mean of visit: 9.7
  Hit Percentage, Mean of visit: 33.4
  Damage Taken, Δ Baseline: −8.4%
  Falls (Deaths), Δ Baseline: −8.9%
  Damage Taken, Δ PLA: −14.0%
  Falls (Deaths), Δ PLA: −15.6%
[1]; Baseline visit, 20 min
  Damage Taken, Mean ± SD: 981.20 ± 457.06
  Falls (Deaths), Mean ± SD: 7 ± 3.54
  Hit Percentage, Mean ± SD: 36.6 ± 11.13
[1]; Baseline visit, 40 min
  Damage Taken, Mean ± SD: 1306.75 ± 553.65
  Falls (Deaths), Mean ± SD: 10.5 ± 5.26
  Hit Percentage, Mean ± SD: 30.25 ± 11.15
[1]; Baseline visit, 60 min
  Damage Taken, Mean ± SD: 1207.60 ± 425.74
  Falls (Deaths), Mean ± SD: 8 ± 3.39
  Hit Percentage, Mean ± SD: 34.6 ± 9.92
[1]; Baseline visit, 80 min
  Damage Taken, Mean ± SD: 1527.80 ± 541.49
  Falls (Deaths), Mean ± SD: 10.8 ± 4.97
  Hit Percentage, Mean ± SD: 34.2 ± 8.23
[1]; Baseline visit, 100 min
  Damage Taken, Mean ± SD: 1647.20 ± 359.67
  Falls (Deaths), Mean ± SD: 11 ± 3.08
  Hit Percentage, Mean ± SD: 30.6 ± 5.98
[1]; Baseline visit, 120 min
  Damage Taken, Mean ± SD: 2067.80 ± 803.18
  Falls (Deaths), Mean ± SD: 16.6 ± 8.59
  Hit Percentage, Mean ± SD: 24.4 ± 4.28
[1]; Baseline visit
  Damage Taken, Mean of visit: 1,460.9
  Falls (Deaths), Mean of visit: 10.65
  Hit Percentage, Mean of visit: 31.7
[1]; after 3 weeks
  reduction of own damage taken compared to baseline (prior to supplementation): 9.4%
  reduction of own damage taken compared to placebo: 9.5%
  reduction of own deaths compared to baseline (prior to supplementation): 15.5%
  reduction of own deaths compared to placebo: 21.7%
[1]; [2]
  improvement over placebo, damage taken, later stages of gaming: 30.9%
  improvement over placebo, number of deaths, later stages of gaming: 34%
Healthy subject
  average score over 5 games: 118,702
  change of average score compared to placebo: +79.4%
  change of personal best compared to placebo: +86.6%
  personal best (high score) of the 5 games: 161,070
